Measurements: patent US11884675B2, “Heterocyclic compounds as triggering receptor expressed on myeloid cells 2 agonists and methods of use” (AMGEN INC., priority 2020, dated 2024)

Molecular target: hTREM2 (Homo sapiens, UniProt Q9NZC2)
Test: TREM2 activity by cellular Syk phosphorylation (AlphaScreen/AlphaLISA) in TREM2/DAP12-HEK cells, used for Examples 1-305
Format: cell-based
Parameters: expressed in transfected cells
Settings: HEK293 Cells
From the text: In vitro Measurement of Triggering Receptor Expressed on Myeloid Cells 2 activity using cellular phosphorylation of Spleen Tyrosine Kinase (“Syk”) Assays used for Examples 1-305
Pharmacological measurements of TREM2 signaling through DAP12 were made with TREM2 and DAP12 overexpressing HEK293 cells stable cell lines that had been single-cell cloned (“TREM2/DAP12-HEK”). The readout of the TREM2 signaling utilized Perkin Elmer AlphaScreen/AlphaLISA technology monitoring the phosphorylation levels of the Syk kinase. TREM2/DAP12-HEK cell lines were cultured in DMEM-F12 (Corning 10-092-CM) supplemented with 1X Penicillin/Streptomycin (Corning 30-002-CI), 1X GlutaMAX (Gibco 35050-061), and 10% Fetal Bovine Serum (Life Technologies 10099) referred to as “HEK Culture Medium”. Suspensions of TREM2/DAP12-HEK cells were prepared in HEK Culture Medium and dispensed into 384-well poly-D-lysine coated microplates (Corning 354661) at a density of 20,000 cells/well using a Multidrop Combi peristaltic microplate dispenser (Thermo), 25 μL volume of cell suspension/well. Plates containing cells were then incubated for 20 hours in a humidified cell culture incubator at 37° C. with 5% CO2 (Thermo). After incubation, culture medium was removed from all wells of each microplate and replaced with 20 μL of “Assay Buffer” comprised of DMEM-F12 (Corning 10-092-CM) supplemented with 1X Penicillin/Streptomycin (Corning 30-002-CI) and 0.1% Pluronic F-68 Polyol (MP Biomedical 092750049) using a Bravo 384-well pipette-based liquid handling system (Agilent). Assay Buffer contained diluted test articles (in 1% final DMSO concentration for compounds) or 100 nM anti-human/mouse TREM2 antibody (R&D Systems MAB17291) as a positive control, or 100 nM or rat IgG2B isotype Ab as a negative control (R&D Systems MAB0061). The plates were incubated with test articles and controls for 45 minutes at room temperature and then the medium was aspirated/removed from each well of the plates. A Multidrop Combi peristaltic liquid handler (Thermo) was used to dispense 15 μL/well of “Cell Lysis Immunoassay Buffer”. The Cell Lysis Immunoassay Buffer contained M-PER Mammalian Protein Extraction Reagent (Pierce/ThermoFisher 78505), 1X Halt Phosphatase Inhibitor Cocktail (ThermoFisher #78427), 0.1875 nM anti-phospho-Syk (Tyr525/526) (C87C1) rabbit mAb (Cell Signaling Technologies catalog #2710), and 1.5 nM biotinylated Mouse anti-human Syk (4D10) antibody (BD Biosciences, catalog #624008). Plates were incubated for 1 hour at room temperature after the addition of the Cell Lysis Immunoassay Buffer. The Multidrop Combi liquid handler was used to dispense 15 μL of AlphaScreen Acceptor Bead Solution containing 7.5 μg/mL anti-rabbit IgG (Fc specific) AlphaLISA Acceptor Beads (Perkin Elmer AL104R) in 1X Immunoassay buffer (Perkin Elmer AL000F) to each well of the microplates. The plates were incubated for 2 hours at room temperature. Following the incubation with the AlphaLISA Acceptor Bead Solution, a Multidrop Combi liquid handler (Thermo) was used to dispense 15 μL of AlphaScreen Donor Bead Solution containing 30 μg/mL of AlphaScreen Streptavidin Donor beads (Perkin Elmer 6760002B) in 1X Immunoassay buffer (Perkin Elmer AL000F) to each well of the microplates. Microplates were incubated for 2 hours protected from light sources as the AlphaScreen reagents are light sensitive. Once the final incubation was completed, an AlphaScreen signal was acquired from the donor and acceptor beads using an Envision high throughput multi-modal microplate reader (Perkin Elmer) calibrated to the plate type with the AlphaScreen mirror and filter-set in 384-well mode, 680 nanometer excitation wavelength. The total measurement time per well was 550 milliseconds with a 180 millisecond excitation time. […]

Sequence of hTREM2 (Q9NZC2 19-230): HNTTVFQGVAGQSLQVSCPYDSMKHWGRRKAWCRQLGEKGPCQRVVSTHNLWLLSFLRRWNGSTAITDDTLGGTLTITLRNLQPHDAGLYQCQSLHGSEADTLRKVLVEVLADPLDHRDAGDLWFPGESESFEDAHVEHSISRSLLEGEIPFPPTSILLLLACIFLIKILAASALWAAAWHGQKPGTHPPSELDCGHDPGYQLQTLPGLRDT
Sequence of hTREM2 (O43914 22-113 partner): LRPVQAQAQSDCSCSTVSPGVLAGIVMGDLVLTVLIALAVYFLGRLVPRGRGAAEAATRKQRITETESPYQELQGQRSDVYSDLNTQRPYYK

SMILES | EC50 | hTREM2 Emax
Cc1cc([C@H]2CN(c3nc4nc(C)cnc4c([C@H]4C[C@H](C(F)(F)F)C4)n3)CCO2)ccn1 [Example 16, 7-methyl-2-((2S)-2-(2-methyl-4-pyridinyl)-4-morpholinyl)-4-(trans-3-(trifluoromethyl)cyclobutyl)pteridine] | ≤ 50 nM | + (Emax>45 and ≤100)
CCc1ccc2c(-c3ccc(Cl)cc3F)nc(N3CCO[C@@H](c4cnn(C)c4)C3)cc2n1 [Example 238, (S)-4-(5-(4-chloro-2-fluorophenyl)-2-ethyl-1,6-naphthyridin-7-yl)-2-(1-methyl-1H-pyrazol-4-yl)morpholine] | 3000 to 100000 nM | + (Emax>45 and ≤100)
Cc1cc([C@H]2CN(c3nc4nc(C)c(C)nc4c([C@H]4C[C@H](C(F)(F)F)C4)n3)CCO2)cnn1 [Example 51, 6,7-dimethyl-2-((2S)-2-(6-methyl-4-pyridazinyl)-4-morpholinyl)-4-(trans-3-(trifluoromethyl)cyclobutyl)pteridine] | ≤ 50 nM | +++ (Emax>150 and ≤250)
Cc1cnc2c(-c3ccc(F)cc3F)nc(N3CCO[C@H]([C@@H]4CCOC4)C3)nc2n1 [Example 253, (R)-4-(4-(2,4-difluorophenyl)-7-methylpteridin-2-yl)-2-((R)-tetrahydrofuran-3-yl)morpholine] | 3000 to 100000 nM | +++ (Emax>150 and ≤250)
Cc1nc2nc(N3CCO[C@@H](c4cnn(C5CC5)c4)C3)nc([C@H]3C[C@H](C(F)(F)F)C3)c2nc1C [Example 50, 2-((2S)-2-(1-cyclopropyl-1H-pyrazol-4-yl)-4-morpholinyl)-6,7-dimethyl-4-(trans-3-(trifluoromethyl)cyclobutyl)pteridine] | ≤ 50 nM | +++ (Emax>150 and ≤250)
Cc1cc([C@H]2CN(c3nc(-c4ccc(Cl)cc4F)c4ccc(C)nc4n3)CCO2)ccn1 [Example 88, 4-(4-chloro-2-fluorophenyl)-7-methyl-2-((2S)-2-(2-methyl-4-pyridinyl)-4-morpholinyl)pyrido[2,3-d]pyrimidine] | ≤ 50 nM | ++++ (Emax>250)
Cc1nc2nc(N3CCO[C@H]([C@H]4CCOC4)C3)nc(-c3ccc(F)cc3F)c2nc1C (single isomer, unassigned) [Example 36] | 50 to 500 nM | +++ (Emax>150 and ≤250)
Cc1nc2nc(N3CCO[C@@H](c4cnn(C)c4)C3)nc(C34CC(C(F)(F)F)(C3)C4)c2nc1C [Example 63, 6,7-dimethyl-2-((2S)-2-(1-methyl-1H-pyrazol-4-yl)-4-morpholinyl)-4-(3-(trifluoromethyl)bicyclo[1.1.1]pentan-1-yl)pteridine] | ≤ 50 nM | +++ (Emax>150 and ≤250)
Cc1nc2cc([C@H]3CCO[C@@H](c4cnn(C5CC5)c4)C3)nc(-c3ccc(Cl)cc3F)c2nc1C [Example 296, 5-(4-chloro-2-fluorophenyl)-7-((2R,4S)-2-(1-cyclopropyl-1H-pyrazol-4-yl)tetrahydro-2H-pyran-4-yl)-2,3-dimethylpyrido[3,4-b]pyrazine] | 3000 to 100000 nM | 
Cc1nc2cc([C@H]3CCO[C@@H](c4cnn(C)c4)C3)nc(-c3ccc(F)cc3F)c2nc1C (single isomer, unassigned) [Example 195] | ≤ 50 nM | ++++ (Emax>250)
COc1cc([C@H]2CN(c3cc4nc(C)cnc4c(-c4ccc(Cl)cc4F)n3)CCO2)ccn1 [Example 78, 5-(4-chloro-2-fluorophenyl)-7-((2S)-2-(2-methoxy-4-pyridinyl)-4-morpholinyl)-2-methylpyrido[3,4-b]pyrazine] | 50 to 500 nM | +++ (Emax>150 and ≤250)
Cc1nc2nc(N3CCO[C@@H](c4cnn(C)c4)C3)nc([C@H]3CC[C@H](C(F)(F)F)CC3)c2nc1C [Example 132, 6,7-dimethyl-2-((2S)-2-(1-methyl-1H-pyrazol-4-yl)-4-morpholinyl)-4-(trans-4-(trifluoromethyl)cyclohexyl)pteridine] | ≤ 50 nM | ++ (Emax>100 and ≤150)

Second part, the molecule after the results:

EC50 | hTREM2 Emax | SMILES
50 to 500 nM | +++ (Emax>150 and ≤250) | Cc1ccc2c(-c3ccc(F)cc3F)nc([C@@H]3CCO[C@H](c4cnn(C)c4)C3)nc2n1 [Example 290, 4-(2,4-difluorophenyl)-7-methyl-2-((2S,4R)-2-(1-methyl-1H-pyrazol-4-yl)tetrahydro-2H-pyran-4-yl)pyrido[2,3-d] pyrimidine]
≤ 50 nM | ++++ (Emax>250) | Cc1cc([C@H]2CN(c3nc(-c4ccc(F)cc4F)c4cc(C)c(C)nc4n3)CCO2)ccn1 [Example 168, 4-(2,4-difluorophenyl)-6,7-dimethyl-2-((2S)-2-(2-methyl-4-pyridinyl)-4-morpholinyl)pyrido[2,3-d] pyrimidine]
500 to 3000 nM | ++ (Emax>100 and ≤150) | Cc1nc2nc(N3CCO[C@@H](c4cnn(C)c4)C3)nc(N3C[C@@H]4[C@H](C3)C4(F)F)c2nc1C [Example 27, 4-((1R,5S)-6,6-difluoro-3-azabicyclo[3.1.0]hexan-3-yl)-6,7-dimethyl-2-((2S)-2-(1-methyl-1H-pyrazol-4-yl)-4-morpholinyl)pteridine]
50 to 500 nM | +++ (Emax>150 and ≤250) | Cc1ccc2c(-c3ccc(Cl)cc3F)nc(N3CCO[C@@H](c4cnn(C)c4)C3)cc2n1 [Example 148, 5-(4-chloro-2-fluorophenyl)-2-methyl-7-((2S)-2-(1-methyl-1H-pyrazol-4-yl)-4-morpholinyl)-1,6-naphthyridine]
≤ 50 nM | +++ (Emax>150 and ≤250) | Cc1nc2nc(N3CCO[C@@H](c4cnn(C)c4)C3)nc(-c3ccc(C(F)(F)F)nc3)c2nc1C [Example 19, 6,7-dimethyl-2-((2S)-2-(1-methyl-1H-pyrazol-4-yl)-4-morpholinyl)-4-(6-(trifluoromethyl)-3-pyridinyl)pteridine]
≤ 50 nM | +++ (Emax>150 and ≤250) | Cc1nc2nc(N3CCO[C@@H](c4cnn(C5CC5)c4)C3)nc(-c3ccc(C(F)(F)F)nc3)c2nc1C [Example 298, (S)-2-(1-cyclopropyl-1H-pyrazol-4-yl)-4-(6,7-dimethyl-4-(6-(trifluoromethyl)pyridin-3-yl)pteridin-2-yl)morpholine]
≤ 50 nM | ++++ (Emax>250) | Cc1cnc2c(-c3ccc(Cl)cc3F)nc([C@H]3CCO[C@@H](c4cnn(C5CC5)c4)C3)nc2n1 (single isomer, unassigned) [Example 170]
500 to 3000 nM | + (Emax>45 and ≤100) | C[C@H]1CN(c2cc3c(c(-c4ccc(Cl)cc4F)n2)CN(C)C3=O)CCO1 [Example 118, 4-(4-chloro-2-fluorophenyl)-2-methyl-6-((2S)-2-methyl-4-morpholinyl)-2,3-dihydro-1H-pyrrolo[3,4-c]pyridin-1-one]
50 to 500 nM | ++ (Emax>100 and ≤150) | CN1Cc2c(cc(N3CCO[C@@H](c4cnn(C)c4)C3)nc2-c2ccc(Cl)cc2F)C1=O [Example 119, 4-(4-chloro-2-fluorophenyl)-2-methyl-6-((2S)-2-(1-methyl-1H-pyrazol-4-yl)-4-morpholinyl)-2,3-dihydro-1H-pyrrolo[3,4-c]pyridin-1-one]
500 to 3000 nM | +++ (Emax>150 and ≤250) | Cc1ccc(-c2nc(N3CCO[C@@H](c4cnn(C)c4)C3)nc3nc(C)c(C)nc23)cn1 [Example 20, 6,7-dimethyl-2-((2S)-2-(1-methyl-1H-pyrazol-4-yl)-4-morpholinyl)-4-(6-methyl-3-pyridinyl)pteridine]
